Common to all, as to assay: inhibition of tumour cell growth, NCI panel, 48 h
Assay [1] has as its system A498.
Assay [2] concerns SK-MEL-5.
For assay [3], the system named is CCRF-CEM.
Assay [4] concerns HOP-92.
The test system of assay [5] is EKVX.
In assay [6] the test system is OVCAR-3.
The test system of assay [7] is SNB-19.
The subject of assay [8] is MOLT-4.
The test system of assay [9] is OVCAR-5.
Assay [10] deals with SF-295.
In assay [11] the test system is A549.
Assay [12] has as its system HT-29.
The test system of assay [13] is HOP-62.
Assay [14] deals with NCI/ADR-RES.
Assay [15] concerns TK-10.
The subject of assay [16] is RPMI-8226.
The subject of assay [17] is U-251.
Assay [18] deals with HCT-15.
Assay [19] concerns SW-620.
Assay [20] deals with RXF 393.

The structures appear in SMILES notation.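 Tested at 5 concentrations; 48 h exposure; 96-well plates; endpoints linearly interpolated, else capped at highest concentration. Abbreviation: GI50, concentration required for 50% inhibition of growth.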 Active and inactive are the calls of the source. No stated cut-off is given here; in the data, active = GI50 up to about 1.1 µM and inactive = higher.

Take `COc1ccc(C(=O)c2c(-c3ccccc3NC(=O)C(F)(F)F)[nH]c3ccccc23)cc1`: the GI50 in assay [1] was 2.17 µM (inactive); in assay [2], 8.95 µM (inactive); in assay [3] it was 2.46 µM (inactive); in [4], 12.4 µM (inactive); in [5], 11.8 µM (inactive); in [6], 3.83 µM (inactive). Moreover, the GI50 in assay [7] was 6.37 µM (inactive); in assay [8], 2.93 µM (inactive); in assay [9], 12.5 µM (inactive); in [10] it was 12.1 µM (inactive); in assay [11] it was 5.66 µM (inactive); in [12], 3.97 µM (inactive). Further, the GI50 was 9.16 µM (inactive) in assay [13]; 8.28 µM (inactive) in [14]; 11.6 µM (inactive) in [15]; 4.8 µM (inactive) in [16]; 2.56 µM (inactive) in assay [17]; 4.98 µM in assay [18]. Also, in [19], the GI50 was 4.06 µM (inactive).
On to `CN(C)c1ccc(O[Si](Oc2ccc(N(C)C)cc2)(Oc2ccc(N(C)C)cc2)Oc2ccc(N(C)C)cc2)cc1`, for which the GI50 is > 100 µM (inactive) in assay [1]; > 100 µM (inactive) in assay [2]; 40.8 µM (inactive) in assay [3]; > 100 µM (inactive) in [4]; > 100 µM (inactive) in [5]; 51.6 µM (inactive) in [6]. Further, the GI50 was > 100 µM (inactive) in assay [7]; 98.2 µM (inactive) in assay [8]; > 100 µM (inactive) in assay [9]; 86.3 µM (inactive) in assay [10]; > 100 µM (inactive) in assay [11]; > 100 µM (inactive) in assay [12]. The GI50 is > 100 µM (inactive) in [13]; > 100 µM (inactive) in assay [15]; > 100 µM (inactive) in assay [16]; 89.3 µM (inactive) in [17]; > 100 µM (inactive) in assay [19].
Consider `COc1cc(/C=C(/C#N)C(N)=O)ccc1O`, for which the GI50 is > 63.2 µM (inactive) in [1]; > 22.2 µM (inactive) in assay [2]; > 100 µM (inactive) in [3]; > 56.8 µM (inactive) in assay [4]; > 100 µM (inactive) in assay [5]; > 100 µM (inactive) in assay [6]. The GI50 in [7], in [8], in [9], in assay [10], in [11] and in assay [12] was > 100 µM (inactive) each time. Besides, the GI50 in assay [13] was > 100 µM (inactive); in [14] it was > 100 µM (inactive); in assay [16], > 100 µM (inactive); in [17], > 100 µM (inactive); in assay [18] it was greater than 100 µM; in assay [19], > 100 µM (inactive).
Take `O=C1C(Cl)N(c2ccc(Cl)cc2Cl)C1c1c[nH]c2ccccc12` (stereo not drawn): the GI50 was > 100 µM (inactive) in assay [2]; > 100 µM (inactive) in assay [3]; 44.5 µM (inactive) in assay [4]; 54 µM (inactive) in [5]; 78.3 µM (inactive) in [6]; 6.01 µM (inactive) in assay [7]. Further, the GI50 in assay [8], in [10], in assay [11], in [12], in [13] and in assay [15] was > 100 µM (inactive) each time. In addition, the GI50 was 74 µM (inactive) in [20], > 100 µM (inactive) in [16], > 100 µM (inactive) in assay [17] and > 100 µM (inactive) in assay [19].
`COc1cc2c(cc1OC)C1Cc3sccc3CN1CC2` (stereo not drawn): the GI50 is > 100 µM (inactive) in assay [2]; > 100 µM (inactive) in assay [3]; 76.2 µM (inactive) in assay [4]; > 100 µM (inactive) in assay [5]; > 100 µM (inactive) in assay [6]; > 100 µM (inactive) in assay [7]. For the same compound, the GI50 in assay [8], in [9], in [10], in [11], in assay [12] and in assay [13] was > 100 µM (inactive) throughout. For the same compound, the GI50 was > 100 µM (inactive) in assay [15]; > 100 µM (inactive) in assay [20]; > 100 µM (inactive) in assay [16]; > 100 µM (inactive) in assay [17]; greater than 100 µM in assay [18]; > 100 µM (inactive) in assay [19].
`COc1nc(N)c(C(=O)CCl)c(=O)n1C`: the GI50 was 15.4 µM (inactive) in assay [1]; 15.1 µM (inactive) in assay [2]; 15.1 µM (inactive) in assay [3]; 4.66 µM (inactive) in [4]; 15.1 µM (inactive) in assay [5]; 17.7 µM (inactive) in assay [7]. Further, the GI50 is 13.9 µM (inactive) in assay [8]; 20.2 µM (inactive) in assay [9]; 15.2 µM (inactive) in assay [10]; 18 µM (inactive) in assay [11]; 16 µM (inactive) in [12]; 14.7 µM (inactive) in [15]. The GI50 in assay [20] is 7.35 µM (inactive); in [16], 2.71 µM (inactive); in assay [17], 15.5 µM (inactive); in assay [19] it was 12.4 µM (inactive).
In the case of `NC(=O)CCC(N=C(N)c1csc(C2OC(CO)C(O)C2O)n1)C(=O)O` (stereo not drawn), the GI50 in [1], in assay [2], in assay [3], in [5], in [8] and in assay [9] was > 100 µM (inactive) in each case. In addition, the GI50 in assay [10], in assay [11], in assay [12], in assay [15], in assay [20] and in assay [16] was > 100 µM (inactive) throughout. The GI50 is > 100 µM (inactive) in assay [17], greater than 100 µM in assay [18] and > 100 µM (inactive) in assay [19].
Turning to `O=C(CCCN1CCC2(CC1)NC(=O)c1ccccc1O2)c1ccc(F)cc1`, the GI50 in assay [2] is 44.9 µM (inactive); in assay [3], 90.4 µM (inactive); in assay [4], > 100 µM (inactive); in [5], > 100 µM (inactive); in [6] it was > 100 µM (inactive); in assay [8] it was 50.1 µM (inactive). For the same compound, the GI50 was 87.1 µM (inactive) in assay [9]; > 100 µM (inactive) in [10]; > 100 µM (inactive) in assay [11]; 43.3 µM (inactive) in assay [12]; > 100 µM (inactive) in [13]; > 100 µM (inactive) in assay [14]. In addition, the GI50 in assay [15] is 81.7 µM (inactive); in assay [20] it was 64.7 µM (inactive); in [16], 76.6 µM (inactive); in assay [17] it was > 100 µM (inactive); in assay [18], greater than 100 µM; in assay [19], > 100 µM (inactive).
`CC1(C23CC4CC(CC(C4)C2)C3)n2c(=O)n(-c3ccccc3)c(=O)n2C1(C)C12CC3CC(CC(C3)C1)C2` (stereo not drawn): the GI50 is > 100 µM (inactive) in assay [1]; > 100 µM (inactive) in assay [2]; > 100 µM (inactive) in [3]; > 100 µM (inactive) in [4]; 91.2 µM (inactive) in assay [5]; > 100 µM (inactive) in assay [6]. Moreover, the GI50 in [7], in [8], in assay [9], in [10], in [11] and in assay [12] was > 100 µM (inactive) each time. Besides, the GI50 in assay [13] is > 100 µM (inactive); in [14], > 100 µM (inactive); in assay [15] it was > 100 µM (inactive); in assay [16], 89.7 µM (inactive); in [17], > 100 µM (inactive); in [18] it was greater than 100 µM. The GI50 in [19] is > 100 µM (inactive).
On to `CCOC(=O)C(NC(C)=O)(Nc1ccc(F)cc1)C(F)(F)F` (stereo not drawn), for which the GI50 was 3.03 µM (inactive) in assay [2]; > 100 µM (inactive) in assay [3]; > 100 µM (inactive) in assay [4]; > 100 µM (inactive) in assay [5]; > 100 µM (inactive) in [6]; > 100 µM (inactive) in assay [7]. Besides, the GI50 in assay [8] is 90.6 µM (inactive); in assay [9] it was 47 µM (inactive); in assay [10] it was 16.6 µM (inactive); in assay [11] it was 39.3 µM (inactive); in assay [12], > 100 µM (inactive); in assay [14], 8.13 µM (inactive). Besides, the GI50 was > 100 µM (inactive) in assay [15]; 40.3 µM (inactive) in [20]; 72.1 µM (inactive) in [16]; 16.5 µM (inactive) in assay [17]; 0.49 µM in assay [18]; 28.8 µM (inactive) in assay [19].
Turning to `COC(=O)C1=C(O)C(C(=O)OC)[C@@]2(O)[C@@H](C(=O)OC)CC[C@@H]1[C@@H]2C(=O)OC` (stereo partly drawn), the GI50 is 16.5 µM (inactive) in [1]; 25.2 µM (inactive) in assay [3]; 23 µM (inactive) in assay [5]; 21.3 µM (inactive) in assay [6]; 43.4 µM (inactive) in assay [7]; 29.4 µM (inactive) in assay [8]. Also, the GI50 in assay [9] is 28.2 µM (inactive); in assay [12] it was > 100 µM (inactive); in assay [13], 23.8 µM (inactive); in assay [15] it was 23 µM (inactive); in assay [20] it was 12.2 µM (inactive); in [16], 27.2 µM (inactive). The values for the GI50 in [17] and in assay [18] were 22.3 µM (inactive) and 20.6 µM, respectively.

The record behind these values is ChEMBL document CHEMBL1201862, “PubChem BioAssay data set” (2004).
